Assay results from PubChem BioAssay AID248 (DTP/NCI, 2004).
Several values for one entry are separate records, joined by “and”; a condition that tells them apart may be missing. Identical values can stand only once. Inconclusive results and toxic doses are left out. No stated cut-off is given here; in the data, active means T/C of 150% or more; inactive means T/C below 125%.

Tested on: L1210 leukemia ip in BDF1 mice, survival T/C
Experiment: NCI In Vivo Anticancer Drug Screen. Data for tumor model L1210 Leukemia (intraperitoneal) in B6D2F1 (BDF1) mice
Details: endpoint: mean survival time, higher = longer survival
Method in brief: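 Ratio derived from survival: compound-dosed mice over vehicle-dosed mice, all bearing a transplantable tumor.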

[1] = dose: 100.0 mg/kg/injection, schedule: Q01DX001 (ip), vehicle: carboxymethylcellulose (CMC)
[2] = dose: 200.0 mg/kg/injection, schedule: Q01DX001 (ip), vehicle: carboxymethylcellulose (CMC)
[3] = dose: 400.0 mg/kg/injection, schedule: Q01DX001 (ip), vehicle: carboxymethylcellulose (CMC)
[4] = dose: 100.0 mg/kg/injection, schedule: Q01DX001 (ip), vehicle: saline
[5] = dose: 100.0 mg/kg/injection, schedule: Q04DX003 (ip), vehicle: acetone
[6] = dose: 200.0 mg/kg/injection, schedule: Q01DX001 (ip), vehicle: saline
[7] = dose: 100.0 mg/kg/injection, schedule: Q04DX002 (ip), vehicle: Klucel (hydroxypropylcellulose) (HPC)
[8] = dose: 200.0 mg/kg/injection, schedule: Q04DX002 (ip), vehicle: Klucel (hydroxypropylcellulose) (HPC)
[9] = dose: 400.0 mg/kg/injection, schedule: Q04DX002 (ip), vehicle: Klucel (hydroxypropylcellulose) (HPC)
[10] = dose: 50.0 mg/kg/injection, schedule: Q04DX002 (ip), vehicle: Klucel (hydroxypropylcellulose) (HPC)
[11] = dose: 200.0 mg/kg/injection, schedule: Q01DX001 (ip), vehicle: Klucel (hydroxypropylcellulose) (HPC)
[12] = dose: 400.0 mg/kg/injection, schedule: Q01DX001 (ip), vehicle: saline
[13] = dose: 50.0 mg/kg/injection, schedule: Q01DX009 (ip), vehicle: Klucel (hydroxypropylcellulose) (HPC)
[14] = dose: 100.0 mg/kg/injection, schedule: Q01DX009 (ip), vehicle: Klucel (hydroxypropylcellulose) (HPC)
[15] = dose: 100.0 mg/kg/injection, schedule: Q04DX003 (ip), vehicle: Klucel (hydroxypropylcellulose) (HPC)
[16] = dose: 200.0 mg/kg/injection, schedule: Q01DX009 (ip), vehicle: Klucel (hydroxypropylcellulose) (HPC)
[17] = dose: 200.0 mg/kg/injection, schedule: Q04DX003 (ip), vehicle: Klucel (hydroxypropylcellulose) (HPC)

Measured: T/C

Clc1ccc(/C=N/Nc2nnc(N/N=C/c3ccc(Cl)cc3Cl)c3ccccc23)c(Cl)c1
inactive: dose: 50.0 mg/kg/injection, schedule: Q01DX001 (ip), vehicle: carboxymethylcellulose (CMC) 88 % of control | [1] 89 % of control | [2] 93 % of control | [3] 100 % of control

CCCCCCCCCCCCCCCCC1CC2CCCCC2C1 (stereo not given)
inactive: dose: 100.0 mg/kg/injection, schedule: Q01DX001 (ip), vehicle: saline with Tween-80 100 % of control | dose: 200.0 mg/kg/injection, schedule: Q01DX001 (ip), vehicle: saline with Tween-80 93 % of control | dose: 400.0 mg/kg/injection, schedule: Q01DX001 (ip), vehicle: saline with Tween-80 94 % of control

O=C(O)/C(=C/c1ccccc1)c1ccccc1
inactive: dose: 100.0 mg/kg/injection, schedule: Q04DX002 (ip), vehicle: saline with Tween-80 95 % of control and 96 % of control | dose: 200.0 mg/kg/injection, schedule: Q04DX002 (ip), vehicle: saline with Tween-80 96 % of control and 88 % of control

O=C1c2cc(F)ccc2-c2cc(Br)c([N+](=O)[O-])cc21
inactive: [1] 97 % of control | [2] 103 % of control | [3] 95 % of control

COc1ccc([I+]c2ccc(OC)cc2)cc1
inactive: dose: 0.63 mg/kg/injection, schedule: Q01DX009 (ip), vehicle: water 100 % of control | dose: 1.25 mg/kg/injection, schedule: Q01DX009 (ip), vehicle: water 101 % of control | dose: 2.5 mg/kg/injection, schedule: Q01DX009 (ip), vehicle: water 105 % of control | dose: 2.5 mg/kg/injection, schedule: Q04DX003 (ip), vehicle: water 103 % of control | dose: 3.12 mg/kg/injection, schedule: Q01DX009 (ip), vehicle: saline 103 % of control | dose: 5.0 mg/kg/injection, schedule: Q04DX003 (ip), vehicle: water 108 % of control | dose: 6.25 mg/kg/injection, schedule: Q01DX009 (ip), vehicle: saline 107 % of control | dose: 10.0 mg/kg/injection, schedule: Q04DX003 (ip), vehicle: water 101 % of control | dose: 12.5 mg/kg/injection, schedule: Q01DX009 (ip), vehicle: saline 91 % of control | dose: 50.0 mg/kg/injection, schedule: Q04DX003 (ip), vehicle: acetone 103 % of control | [4] 111 % of control | [5] 100 % of control | [6] 109 % of control

CC(=O)c1c(O)cc(O)cc1-c1cc(=O)c2c(O)ccc(C(C)=O)c2o1
inactive: [1] 103 % of control | [2] 94 % of control

OC1C2c3ccccc3C(c3c2cc(F)c2ccccc32)C1O (stereo not given)
inactive: dose: 37.5 mg/kg/injection, schedule: Q01DX001 (ip), vehicle: Klucel (hydroxypropylcellulose) (HPC) 102 % of control | dose: 75.0 mg/kg/injection, schedule: Q01DX001 (ip), vehicle: Klucel (hydroxypropylcellulose) (HPC) 96 % of control | dose: 150.0 mg/kg/injection, schedule: Q01DX001 (ip), vehicle: Klucel (hydroxypropylcellulose) (HPC) 104 % of control

O=S=Nc1ccc([N+](=O)[O-])cc1Cl
inactive: [7] 103 % of control | [8] 106 % of control | [9] 100 % of control

COc1ccccc1/C=C/C(=O)O
inactive: dose: 25.0 mg/kg/injection, schedule: Q04DX002 (ip), vehicle: Klucel (hydroxypropylcellulose) (HPC) 98 % of control | [10] 100 % of control | [7] 88 % of control

O=C(C[n+]1cccc2ccccc21)c1ccc(-c2ccccc2)cc1
inactive: [11] 96 % of control

CC(NC(=O)C(NC(=O)c1cnc2ccccc2n1)C(C)C)C(=O)O (stereo not given)
inactive: [4] 94 % of control | [5] 99 % of control | [6] 104 % of control | dose: 200.0 mg/kg/injection, schedule: Q04DX003 (ip), vehicle: acetone 103 % of control | [12] 96 % of control | dose: 400.0 mg/kg/injection, schedule: Q04DX003 (ip), vehicle: acetone 99 % of control

Cc1[nH]c(=S)[nH]c(=O)c1CN(CCO)CCO
inactive: dose: 50.0 mg/kg/injection, schedule: Q01DX001 (ip), vehicle: Klucel (hydroxypropylcellulose) (HPC) 123 % of control | [13] 96 % of control | dose: 50.0 mg/kg/injection, schedule: Q04DX003 (ip), vehicle: Klucel (hydroxypropylcellulose) (HPC) 108 % of control | dose: 100.0 mg/kg/injection, schedule: Q01DX001 (ip), vehicle: Klucel (hydroxypropylcellulose) (HPC) 101 % of control | [14] 101 % of control | [15] 102 % of control | [11] 101 % of control | [16] 123 % of control | [17] 91 % of control

O=C(N/N=C/c1cc([N+](=O)[O-])ccc1O)c1cccc2ccccc12
inactive: [4] 90 % of control | [6] 90 % of control | [12] 92 % of control

O=C(O)C1C2OC3C(OC(=O)C31)C2Br (stereo not given)
inactive: [10] 107 % of control | [14] 89 % of control | [7] 104 % of control | [15] 101 % of control | [16] 91 % of control | [8] 100 % of control | [17] 92 % of control | dose: 400.0 mg/kg/injection, schedule: Q01DX009 (ip), vehicle: Klucel (hydroxypropylcellulose) (HPC) 88 % of control | [9] 96 % of control | dose: 400.0 mg/kg/injection, schedule: Q04DX003 (ip), vehicle: Klucel (hydroxypropylcellulose) (HPC) 93 % of control

CCOc1ccc(N)c([N+](=O)[O-])c1
inactive: [4] 100 % of control | [6] 107 % of control | [12] 105 % of control

O=c1[nH]c2ccc([N+](=O)[O-])cc2c2nc3ccccc3n12
inactive: [13] 95 % of control | [14] 101 % of control | [16] 95 % of control

CCCCCCCCCCCCCCCCCCNC(=O)NC(C)(C)C
inactive: [7] 111 % of control | [8] 100 % of control | [9] 111 % of control

CCOC(O)(C=O)C1CCCN1 (stereo not given)
inactive: [4] 100 % of control | dose: 100.0 mg/kg/injection, schedule: Q01DX009 (ip), vehicle: saline 104 % of control | [6] 97 % of control | dose: 200.0 mg/kg/injection, schedule: Q01DX009 (ip), vehicle: saline 101 % of control | [12] 97 % of control | dose: 400.0 mg/kg/injection, schedule: Q01DX009 (ip), vehicle: saline 95 % of control
